Experimental data as given in patent US9555038B2, “Heterocycle-substituted tetracyclic compounds and methods of use thereof for the treatment of viral diseases” (Merck Sharp & Dohme Corp., priority 2013, dated 2017).
Like-named read-outs stand apart in the source and are kept apart here.

Columns and labels:
HCV replicon 1A = assay: Cell-based HCV Replicon Assay A, replicon 1A
In short: (§1)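 Readout: replicon RNA by real-time RT-PCR, normalised to co-amplified cyclophilin and quantified against replicon total-RNA standard curves. Cells (2000/well) treated 3 days in medium with 5% FBS and 0.5% DMSO, compound in 10 serial dilutions from starting concentrations of 333.3 nM to 1.667 nM.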

HCV replicon 1B = assay: Cell-based HCV Replicon Assay B, replicon 1B
In short: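 EC50 defined as the drug concentration giving a CT increase of 1 above projected baseline, from real-time RT-PCR of replicon RNA using genotype-specific primers and probes. Cells were seeded in 5% FBS, dosed after 24 h and incubated 3 days before lysis.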

HCV replicon 1AQ30D = assay: Cell-based HCV Replicon Assay B, replicon 1AQ30D
Description: In an alternate assay (“Replicon Assay B”), 1000 cells were seeded per well in a 384-well collagen coated black plate from Greiner bio-one (Cat #781946) in 5% FBS. Inhibitors of this invention were added at 24 h post-seeding, and the plates were incubated for 3 days. Cells were subsequently lysed with Qiagen lysis buffer (Cat #1062731) to extract the RNA. HCV replicon RNA level was measured by real-time PCR using the RNA-to-CT kit from Applied Biosystem (Cat #4392656) and genotype-specific primers and probes. The amplicon was located within NS5B. The sequence of the PCR primers are as follows: 5B.2F, ATGGACAGGCGCCCTGA (SEQ. ID NO. 1); 5B.2R, […] (SEQ. ID NO. 2); the probe sequence was FAM-labeled CACGCCATGCGCTGCGG (SEQ. ID NO. 3). To detect genotype 1A the primer 1A F, TGCGGAACCGGTGAGTACA and 1A R, […] were used; the probe sequence was FAM-[…].
The real-time RT-PCR reactions were run on ABI PRISM 7900HT or Viia7 Sequence Detection System using the following program: 48° C. for 30 minutes, 95° C. for 10 minutes, 40 cycles of 95° C. for 15 sec, 60° C. for 1 minutes. The 50% effective concentration (EC50) was the drug concentration necessary to achieve an increase in the cycle threshold (CT) of 1 over the projected baseline CT.
Data was obtained for various compounds of the present invention using the methods described in the Example above, and is presented in the table immediately below. Data for replicons 1A, 1AY93H and 2B were obtained using Replicon Assay A and data for replicons 1AQ30D and 1B were obtained using Replicon Assay B.

HCV replicon 1AY93H = assay: Cell-based HCV Replicon Assay A, replicon 1AY93H
In short: as §1

HCV replicon 2B = assay: Cell-based HCV Replicon Assay A, replicon 2B
In short: as §1

[1] = read-out: 1A Q30D IC50, replicon 1AQ30D
[2] = read-out: 1A Y93H IC50, replicon 1AY93H
[3] = Hepatitis C virus, read-out: 1A Q30D IC50 (nM), replicon 1AQ30D
[4] = Hepatitis C virus, read-out: 1A Y93H IC50 (nM), replicon 1AY93H
[5] = Hepatitis C virus, read-out: 2B IC50 (nM), replicon 2B

| SMILES | IC50 (HCV replicon 1A) [pM] | IC50 (HCV replicon 1B) [pM] | IC50 (HCV replicon 1AQ30D; [1]) [nM] | IC50 (HCV replicon 1AY93H; [2]) [nM] | IC50 (HCV replicon 2B; read-out: 2B IC50, replicon 2B) [nM] | IC50 (HCV replicon 1A; Hepatitis C virus) [pM] | IC50 (HCV replicon 1B; Hepatitis C virus) [pM] | IC50 (HCV replicon 1AQ30D; [3]) [nM] | IC50 (HCV replicon 1AY93H; [4]) [nM] | IC50 (HCV replicon 2B; [5]) [nM] |
| --- | --- | --- | --- | --- | --- | --- | --- | --- | --- | --- |
| COC(=O)N[C@H](C(=O)N1CCC[C@H]1c1ncc(-c2cc(C)c3c(c2)OC(c2ncc(C4CC4)s2)n2c-3cc3cc(-c4cnc([C@@H]5CCCN5C(=O)[C@@H](NC(=O)OC)C5C[C@@H](C)O[C@@H](C)C5)[nH]4)ccc32)[nH]1)C(C)C (single isomer, unassigned) [Compound 48] | 1.5 | 2 | 0.31 | 0.0538 | 0.016 | – | – | – | – | – |
| COC(=O)NC(C(=O)N1CCC[C@H]1c1ncc(-c2ccc3c(c2)cc2n3C(c3ncc(C4CC4)s3)Oc3cc(-c4cnc([C@@H]5CCCN5C(=O)[C@@H](NC(=O)OC)C(C)C)[nH]4)cc(F)c3-2)[nH]1)C1C[C@@H](C)O[C@@H](C)C1 (single isomer, unassigned) [Compound 51] | – | – | – | – | – | 2.2 | 3 | 0.152 | 0.0223 | 0.025 |
| COC(=O)N[C@H](C(=O)N1CCC[C@H]1c1ncc(-c2cc(F)c3c(c2)OC(c2cnc(-c4ccc(Cl)cc4)s2)n2c-3cc3cc(-c4cnc([C@@H]5CCCN5C(=O)[C@@H](NC(=O)OC)C(C)C)[nH]4)ccc32)[nH]1)C(C)C (single isomer, unassigned) [Compound 53] | – | – | – | 0.0022 | 0.004 | 1.6 | 1 | 0.07 | – | – |
| COC(=O)NC(C(=O)N1CCC[C@H]1c1ncc(-c2ccc3c(c2)cc2n3C(c3cnc(C(C)C)s3)Oc3cc(-c4cnc([C@@H]5CCCN5C(=O)[C@@H](NC(=O)OC)C(C)C)[nH]4)cc(F)c3-2)[nH]1)C1C[C@@H](C)O[C@@H](C)C1 (single isomer, unassigned) [Compound 57] | 1.6 | – | – | 0.002 | 0.005 | – | 1 | 0.028 | – | – |
| CCCc1ncc(C2Oc3cc(-c4cnc([C@@H]5CCCN5C(=O)[C@@H](NC(=O)OC)C(C)C)[nH]4)cc(F)c3-c3cc4cc(-c5cnc([C@@H]6CCCN6C(=O)C(NC(=O)OC)C6CCOC(C)(C)C6)[nH]5)ccc4n32)s1 (single isomer, unassigned) [Compound 59] | 2.6 | 3 | 0.762 | 0.132 | 0.133 | – | – | – | – | – |
| CCCc1ncc(C2Oc3cc(-c4cnc([C@@H]5CCCN5C(=O)[C@@H](NC(=O)OC)C(C)C)[nH]4)cc(F)c3-c3cc4cc(-c5cnc([C@@H]6CCCN6C(=O)C(NC(=O)OC)C6CCOC(C)(C)C6)[nH]5)ccc4n32)s1 (single isomer, unassigned) [Compound 61] | 3.3 | 1.7 | 0.07 | 0.012 | 0.006 | – | – | – | – | – |
| COC(=O)NC(C(=O)N1[C@@H]2C[C@@H]2C[C@H]1c1ncc(-c2ccc3c(c2)cc2n3C(c3ncc(C4CC4)s3)Oc3cc(-c4cnc([C@@H]5CCCN5C(=O)[C@@H](NC(=O)OC)C(C)C)[nH]4)cc(F)c3-2)[nH]1)C1C[C@@H](C)O[C@@H](C)C1 (single isomer, unassigned) [Compound 65] | 2.1 | – | – | 0.0081 | 0.044 | – | 3 | 0.095 | – | – |
| COC(=O)NC(C(=O)N1CCC[C@H]1c1ncc(-c2ccc3c(c2)cc2n3C(c3cnc(C4CCC4)s3)Oc3cc(-c4cnc([C@@H]5CCCN5C(=O)[C@@H](NC(=O)OC)C(C)C)[nH]4)cc(F)c3-2)[nH]1)C1C[C@@H](C)O[C@@H](C)C1 (single isomer, unassigned) [Compound 66] | – | – | 0.018 | 0.0021 | 0.003 | 2.3 | 2 | – | – | – |
| COC(=O)NC(C(=O)N1CCC[C@H]1c1ncc(-c2ccc3c(c2)cc2n3C(c3cnc(C4CCC4)s3)Oc3cc(-c4cnc([C@@H]5CCCN5C(=O)[C@@H](NC(=O)OC)C(C)C)[nH]4)cc(F)c3-2)[nH]1)C1C[C@@H](C)O[C@@H](C)C1 (single isomer, unassigned) [Compound 67] | 2 | 2 | 1.39 | 0.225 | 0.056 | – | – | – | – | – |
| COC(=O)NC(C(=O)N1CCC[C@H]1c1ncc(-c2ccc3c(c2)c(F)c2n3C(c3cnc(C4CC4)s3)Oc3cc(-c4cnc([C@@H]5CCCN5C(=O)[C@@H](NC(=O)OC)C(C)C)[nH]4)cc(F)c3-2)[nH]1)C1CCOC(C)(C)C1 (single isomer, unassigned) [Compound 72] | – | – | – | – | – | 2.9 | 2.4 | 0.099 | 0.006 | 0.005 |
| COC(=O)NC(C(=O)N1CCC[C@H]1c1ncc(-c2ccc3c(c2)cc2n3C(c3cnc(C(C)(C)O)s3)Oc3cc(-c4cnc([C@@H]5CCCN5C(=O)[C@@H](NC(=O)OC)C(C)C)[nH]4)cc(F)c3-2)[nH]1)C1C[C@@H](C)O[C@@H](C)C1 (single isomer, unassigned) [Compound 74] | 3.6 | 4 | – | 0.0053 | 0.005 | – | – | 0.021 | – | – |
| COC(=O)NC(C(=O)N1CCC[C@H]1c1ncc(-c2ccc3c(c2)cc2n3C(c3nc(C(F)(F)F)cs3)Oc3cc(-c4cnc([C@@H]5CCCN5C(=O)[C@@H](NC(=O)OC)C(C)C)[nH]4)cc(F)c3-2)[nH]1)C1C[C@@H](C)O[C@@H](C)C1 (single isomer, unassigned) [Compound 76] | 2.7 | – | – | 0.0322 | 0.141 | – | 3 | 0.422 | – | – |
| COC(=O)N[C@H](C(=O)N1CCC[C@H]1c1ncc(-c2cc(F)c3c(c2)OC(c2cnc(-c4ccc(OC(F)(F)F)cc4)s2)n2c-3cc3cc(-c4cnc([C@@H]5CCCN5C(=O)[C@@H](NC(=O)OC)C(C)C)[nH]4)ccc32)[nH]1)C(C)C (single isomer, unassigned) [Compound 77] | 3.5 | – | 0.053 | 0.0056 | 0.005 | – | 1 | – | – | – |
| COC(=O)N[C@H](C(=O)N1CCC[C@H]1c1ncc(-c2cc(F)c3c(c2)OC(c2cnc(-c4ccc(OC(F)(F)F)cc4)s2)n2c-3cc3cc(-c4cnc([C@@H]5CCCN5C(=O)[C@@H](NC(=O)OC)C(C)C)[nH]4)ccc32)[nH]1)C(C)C (single isomer, unassigned) [Compound 78] | 1.4 | 1 | 1.86 | 0.165 | 0.193 | – | – | – | – | – |
| CCc1ncc(C2Oc3cc(-c4cnc([C@@H]5CCCN5C(=O)[C@@H](NC(=O)OC)C(C)C)[nH]4)cc(F)c3-c3cc4cc(-c5cnc([C@@H]6CCCN6C(=O)[C@@H](NC(=O)OC)C(C)C)[nH]5)ccc4n32)s1 (single isomer, unassigned) [Compound 81] | – | – | – | 0.019 | 0.027 | 2.7 | 2 | 0.384 | – | – |
| CCc1ncc(C2Oc3cc(-c4cnc([C@@H]5CCCN5C(=O)[C@@H](NC(=O)OC)C(C)C)[nH]4)cc(F)c3-c3cc4cc(-c5cnc([C@@H]6C[C@H]7C[C@H]7N6C(=O)[C@@H](CC(=O)OC)C(C)C)[nH]5)ccc4n32)s1 (single isomer, unassigned) [Compound 83] | – | – | – | 0.0067 | 0.048 | 3 | 3 | 0.12 | – | – |
| COC(=O)N[C@H](C(=O)N1CCC[C@H]1c1ncc(-c2cc(F)c3c(c2)OC(c2nc4c(s2)CCCC4)n2c-3cc3cc(-c4cnc([C@@H]5CCCN5C(=O)[C@@H](NC(=O)OC)C(C)C)[nH]4)ccc32)[nH]1)C(C)C (single isomer, unassigned) [Compound 87] | – | – | 0.068 | – | – | 2.5 | 864 | – | 0.0714 | 0.003 |
| COC(=O)N[C@H](C(=O)N1CCC[C@H]1c1ncc(-c2cc(F)c3c(c2)OC(c2cnc(C(C)C)s2)n2c-3cc3cc(-c4cnc([C@@H]5C[C@H]6C[C@H]6N5C(=O)[C@@H](NC(=O)OC)C(C)C)[nH]4)ccc32)[nH]1)C(C)C (single isomer, unassigned) [Compound 89] | – | – | – | – | – | 1.7 | 3 | 0.081 | 0.0028 | 0.029 |
| CCCc1ncc(C2Oc3cc(-c4cnc([C@@H]5CCCN5C(=O)[C@@H](NC(=O)OC)C(C)C)[nH]4)cc(F)c3-c3cc4cc(-c5cnc([C@@H]6C[C@H]7C[C@H]7N6C(=O)[C@@H](NC(=O)OC)C(C)C)[nH]5)ccc4n32)s1 (single isomer, unassigned) [Compound 90] | – | – | – | 0.0038 | 0.018 | 2.5 | 3 | 0.09 | – | – |
